Assay results reported in publication PMC10216478, “Development of a Non-Peptide Angiotensin II Type 1 Receptor Ligand by Structural Modification of Olmesartan as a Biased Agonist” (Biomedicines, 2023).
Changes are numbered by the printed parent chain.

How the values were obtained:
Type in all cases: cell-based
AT1 Q257A receptor = target: T1, AT1 Q257A receptor (Rattus norvegicus, UniProt P25095, Q257A); experiment: IP production assay in COS7 cells expressing AT1-Q257A receptor; details: 1 µM ligands or 0.1 µM Ang II, 30 min, n = 5, vs. (-)
T1 construct: expressed in transfected cells; host or cells: COS7
T1 sequence (P25095 1-359 Q257A): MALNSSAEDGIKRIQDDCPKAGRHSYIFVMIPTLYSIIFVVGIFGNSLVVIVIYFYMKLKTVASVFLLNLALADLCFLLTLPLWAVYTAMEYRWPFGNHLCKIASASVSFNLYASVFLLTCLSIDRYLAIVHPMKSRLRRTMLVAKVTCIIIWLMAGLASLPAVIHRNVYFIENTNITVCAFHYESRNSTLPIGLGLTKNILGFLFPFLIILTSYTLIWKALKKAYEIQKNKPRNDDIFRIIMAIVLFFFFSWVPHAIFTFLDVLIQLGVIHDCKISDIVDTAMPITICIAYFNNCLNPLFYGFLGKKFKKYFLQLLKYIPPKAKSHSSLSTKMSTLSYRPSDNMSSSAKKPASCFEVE
Procedure: (§1) The synthetic rat AT1 receptor gene, which was cloned in the shuttle expression vector pMT-2, was used for expression and mutagenesis, as described previously. […] In the experiments, cells were grown without a cell-growth supplement. To express the AT1 receptor protein, 10 µg of purified plasmid DNA per 10^7 cells was used in the transfection. Wild-type and mutated AT1 receptors were transiently transfected into cells using Lipofectamine 2000 liposomal reagent (Roche Applied Science, Penzberg, Germany). Cells were plated and grown and were 70–90% confluent at the time of transfection. We incubated plasmid DNA (10 µg)–lipid (10 µL) complexes for 5 min at room temperature and added and incubated the complexes with cells for 24 h. We then analyzed the parameters in transfected cells. […] Transfected cells that had been cultured for 48–72 h were harvested. Cell membranes were prepared using the nitrogen Parr bomb disruption or freeze–thaw methods.
Ligand (such as agonist or antagonist)-induced IP production through the AT1 receptor in transfected COS7 cells transiently expressing the AT1 receptor was measured to evaluate cell signaling as a second messenger for controlling blood pressure, since the increases in the intracellular Ca^2+ concentration were the result of IP accumulation, which indicated vasoconstriction. As a surrogate model with higher levels of AT1 receptor expression, COS7 cells are suitable for IP measurement because it is easy to detect differences in IP production. Cells were labeled for 24 h with [^3H]-myoinositol at 37 °C in DMEM containing 10% FBS. Next, the cells were washed with buffer 3 times and incubated with a medium containing 10 mM LiCl for 20 min; 0.1 µM Ang II or 1 µM ligands were added and incubation was continued for another 30 min at 37 °C. After incubation, the medium was removed, and total soluble IP was extracted from the cells using the perchloric acid extraction method, as described previously. Cells were plated at a field density of 5 × 10^3 cells/cm^2 in 60 mm dishes and cultured in a fresh growth medium at 37 °C in a DMEM 5% CO2 incubator. […] The culture medium was changed 48 h after transfection and 1.5 mL of 1 μCi/mL of [^3H]-myoinositol was added to each 60-mm dish at 37 °C in DMEM containing 10% FBS. After labeling, the cells were washed with buffer 3 times and incubated with a medium containing 10 mM LiCl for 20 min. The indicated concentration of ligands was added and incubation was continued for an additional 30 min at 37 °C. After incubation, the medium was removed, and total soluble IP was extracted from the cells using the perchloric acid extraction method. Total IP production was expressed as the sum of radioactivity, as described previously.

AT1 wild-type receptor = target: T2, AT1 wild-type receptor (Rattus norvegicus, UniProt P25095); experiment: Immunoblotting of ERK 1/2 activation in COS7 cells overexpressing AT1 wild-type receptor; details: for ERK1/2 activation: AT1 wild-type receptor, COS7 cells, 1 µM ligands or 0.1 µM Ang II, 10 min, n = 5, vs. (-); for Mode of action in terms of ERK1/2 activation: authors' classification from ERK1/2 activation
T2 construct: expressed in transfected cells; host or cells: COS7
T2 sequence (P25095 1-359): T1 sequence (P25095 1-359 Q257A) with A257Q
Procedure: as §1
(§2) In in vitro studies, ERK 1/2 activation by 1 µM ligands or 0.1 µM Ang II incubated for 10 min was measured using COS7 cells that overexpressed AT1 wild-type and mutant receptors. ERK activity was measured in cells maintained for 18 h in DMEM containing 0.1% serum. At the end of the stimulation, the culture medium was removed by aspiration, the cells were washed with ice-cold phosphate-buffered saline, and the dishes were frozen in liquid nitrogen. The cells were scraped using a scraper after melting, and the scraped cells were transferred to a tube. We homogenized the cells in lysis buffer plus protease inhibitors and determined the protein concentration using the bicinchoninic acid method. […] We fractionated total proteins using sodium dodecyl sulfate polyacrylamide gel electrophoresis; we then transferred the proteins to a Hybond nitrocellulose membrane and blocked the blotted membranes with 10% bovine serum albumin in tris-buffered saline buffer (50 mM Tris–HCl pH 7.6, 150 mM NaCl) for 1 h at room temperature. […] An enhanced chemiluminescent substrate system (Amersham, Buckinghamshire, UK) was used. The signal was independently quantified by digital image analysis (ImageJ, National Institutes of Health, Bethesda, MD, USA).

AT1 L112A receptor = target: T3, AT1 L112A receptor (Rattus norvegicus, UniProt P25095, L112A); experiment: Immunoblotting of ERK 1/2 activation in COS7 cells overexpressing AT1-L112A receptor; details: 1 µM ligands or 0.1 µM Ang II, 10 min, n = 5, vs. (-)
T3 construct: expressed in transfected cells; host or cells: COS7
T3 sequence (P25095 1-359 L112A): T1 sequence (P25095 1-359 Q257A) with L112A, A257Q
Procedure: as §1, §2

ERK1/2 activation (AT1 wild-type receptor)	Mode of action in terms of ERK1/2 activation (AT1 wild-type receptor)	ERK1/2 activation (AT1 L112A receptor)	Structure (SMILES)	Effect on IP production (AT1 Q257A receptor)
activated ERK1/2	agonists in terms of ERK1/2 activation	activated ERK1/2	CCCc1nc(C(C)(C)O)c(C(=O)O)n1Cc1ccc(-c2cc(Cc3ccc(O)cc3)ccc2-c2nnn[nH]2)cc1 [R781253]	none of the compounds (R239470, R781253, and R794847) affected IP production
activated ERK1/2	agonists in terms of ERK1/2 activation	activated ERK1/2	CCCc1nc(C(C)(C)O)c(C(N)=O)n1Cc1ccc(-c2cc(Cc3ccc(O)cc3)ccc2-c2nnn[nH]2)cc1 [R794847]	none of the compounds (R239470, R781253, and R794847) affected IP production
but not R239470, activated ERK1/2	–	but not R239470, activated ERK1/2	CCCc1nc(C(C)(C)O)c(C(N)=O)n1Cc1ccc(-c2ccccc2-c2nnn[nH]2)cc1 [R239470]	none of the compounds (R239470, R781253, and R794847) affected IP production
did not change ERK1/2 activation	–	did not change ERK1/2 activation	CCCc1nc(C(C)(C)O)c(C(=O)O)n1Cc1ccc(-c2ccccc2-c2nnn[nH]2)cc1 [Olmesartan, olmesartan]	significant reduction in basal IP production levels
